Values of other authors, collected in patent publication US8389009B2, “Spatial control of signal transduction” (Wisconsin Alumni Research Foundation, priority 2005, dated 2013).
Where two headings read alike, the source gives them in different places. Each block holds one molecule with its values, some of them ahead of it.

Tests used:
VEGF [1] = biological target: T1, VEGF (Homo sapiens, UniProt P15692); conditions: handle for VEGF; literature value; read-out: Affinity (KD)
T1 sequence (P15692 27-191 isoform P15692-4): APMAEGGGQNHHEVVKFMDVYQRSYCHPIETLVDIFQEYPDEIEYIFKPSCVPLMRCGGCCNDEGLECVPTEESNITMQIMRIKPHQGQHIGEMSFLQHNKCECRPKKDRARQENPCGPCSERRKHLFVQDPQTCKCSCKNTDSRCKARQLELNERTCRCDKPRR

IGF-1 [2] = biological target: T2, IGF-1 (Homo sapiens, UniProt P05019); conditions: handle for IGF-1; literature value; read-out: Affinity (KD)
IGF-1 [3] = biological target: T2, IGF-1; conditions: natural receptor binding IGF-1, according to previous studies; read-out: affinity (dissociation constant KD)
VEGF [4] = biological target: T1, VEGF; conditions: natural receptor binding VEGF, according to previous studies; read-out: affinity (dissociation constant KD)

T2 sequence (P05019 49-118 limits assumed): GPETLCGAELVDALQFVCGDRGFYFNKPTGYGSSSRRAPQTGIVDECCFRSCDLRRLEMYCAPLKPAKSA

Molecule: AAGAAACGGAAGAAUUGGAGACACGCUCGU (chemistry not given here) [SEQ ID NO: 2]
Kd (VEGF [1]): 1 nM

Molecule: AGUUUUGGAAGAAUUGGAUGUUCCGAUCGU (chemistry not given here) [SEQ ID NO: 3]
Kd (VEGF [1]): 10 nM

Molecule: AUGCAGUUUGAGAAGUCGCGGAU [SEQ ID NO: 1]
Kd (VEGF [1]): 0.01 nM

Molecule: GGAAGAAUUGGUCAUCGUCGUCUCCGCCUCCC (chemistry not given here) [SEQ ID NO: 4]
Kd (VEGF [1]): 100 nM

Molecule: RNCFESVAALRRCMY [SEQ ID NO: 8]
Kd (IGF-1 [2]): 100 nM

Molecule: VTCAADALGFLYCWE [SEQ ID NO: 10]
Kd (IGF-1 [2]): 2000 nM

B1: natural VEGF receptor 1: natural cell surface receptor that binds VEGF (protein, UniProt P17948 27-1338, looked up)
Vascular endothelial growth …: SKLKDPELSLKGTQHIMQAGQTLHLQCRGEAAHKWSLPEMVSKESERLSITKSACGRNGKQFCSTLTLNTAQANHTGFYSCKYLAVPTSKKKETESAIYIFISDTGRPFVEMYSEIPEIIHMTEGRELVIPCRVTSPNITVTLKKFPLDTLIPDGKRIIWDSRKGFIISNATYKEIGLLTCEATVNGHLYKTNYLTHRQTNTIIDVQISTPRPVKLLRGHTLVLNCTATTPLNTRVQMTWSYPDEKNKRASVRRRIDQSNSHANIFYSVLTIDKMQNKDKGLYTCRVRSGPSFKSVNTSVHIYDKAFITVKHRKQQVLETVAGKRSYRLSMKVKAFPSPEVVWLKDGLPATEKSARYLTRGYSLIIKDVTEEDAGNYTILLSIKQSNVFKNLTATLIVNVKPQIYEKAVSSFPDPALYPLGSRQILTCTAYGIPQPTIKWFWHPCNHNHSEARCDFCSNNEESFILDADSNMGNRIESITQRMAIIEGKNKMASTLVVADSRISGIYICIASNKVGTVGRNISFYITDVPNGFHVNLEKMPTEGEDLKLSCTVNKFLYRDVTWILLRTVNNRTMHYSISKQKMAITKEHSITLNLTIMNVSLQDSGTYACRARNVYTGEEILQKKEITIRDQEAPYLLRNLSDHTVAISSSTTLDCHANGVPEPQITWFKNNHKIQQEPGIILGPGSSTLFIERVTEEDEGVYHCKATNQKGSVESSAYLTVQGTSDKSNLELITLTCTCVAATLFWLLLTLFIRKMKRSSSEIKTDYLSIIMDPDEVPLDEQCERLPYDASKWEFARERLKLGKSLGRGAFGKVVQASAFGIKKSPTCRTVAVKMLKEGATASEYKALMTELKILTHIGHHLNVVNLLGACTKQGGPLMVIVEYCKYGNLSNYLKSKRDLFFLNKDAALHMEPKKEKMEPGLEQGKKPRLDSVTSSESFASSGFQEDKSLSDVEEEEDSDGFYKEPITMEDLISYSFQVARGMEFLSSRKCIHRDLAARNILLSENNVVKICDFGLARDIYKNPDYVRKGDTRLPLKWMAPESIFDKIYSTKSDVWSYGVLLWEIFSLGGSPYPGVQMDEDFCSRLREGMRMRAPEYSTPEIYQIMLDCWHRDPKERPRFAELVEKLGDLLQANVQQDGKDYIPINAILTGNSGFTYSTPAFSEDFFKESISAPKFNSGSSDDVRYVNAFKFMSLERIKTFEELLPNATSMFDDYQGDSSTLLASPMLKRFTWTDSKPKASLKIDLRVTSKSKESGLSDVSRPSFCHSSCGHVSEGKRRFTYDHAELERKIACCSPPPDYNSVVLYSTPPI
Kd (VEGF [4]): ~0.0075 nM

Next, values leading:

Kd (VEGF [1]): 10000 nM
Molecule: EELWCFDGPRAWVCGYVK [SEQ ID NO: 7]

Kd (IGF-1 [2]): 500 nM
Molecule: HDCFASVEALRRCMY [SEQ ID NO: 9]

Kd (VEGF [1]): 200 nM
Molecule: VEPNCDIHVMWEWECFERL [SEQ ID NO: 5]

Kd (IGF-1 [3]): ~0.16 nM
Molecule: natural IGF-1 receptor: natural cell surface receptor that binds IGF-1
